Source: patent US11767332B2, “Glucose-sensitive albumin-binding derivatives” (Novo Nordisk A/S, priority 2017, dated 2023)
“Also recorded” adds a separate entry of the source.

Columns and labels:
[1] = biological target: human serum albumin (HSA) (Homo sapiens (Human), UniProt P02768); assay: Fluorine (19F) NMR assay, glucose-sensitive albumin binding; details: 0.1 mM compound, 1 mM HSA, 50 mM glucose, pH 7.4
Protocol: Diboron compound is dissolved at a 0.1 mM concentration in a 50 mM phosphate buffer pH 7.4, 10% deuterated water (D2O), and mixed with 0, 0.1, 0.2, 0.5, 1 and 2 mM human serum albumin (HSA). An additional sample with diboron compound in the presence of 1 mM HSA and 50 mM glucose is prepared.
The samples are then placed into 3 mm standard NMR tube (Bruker) and transferred for analysis to a 400 Mhz Bruker spectrometer equipped with a cryoprobe suitable for fluorine detection. The experiment is carried out with standard Bruker zgflqn pulse sequence at room temperature with enough scans to have a S/N ratio over 50 for the 0 mM HSA sample. The spectra are processed, visualized and compared by TopSpin program (Bruker).
The binding of diboron compound to HSA is qualitatively assessed by decrease of the fluorine signal of the diboron compound upon binding to HSA. Release of the diboron compound from HSA upon addition of glucose is assessed by reappearance/increase of fluorine signal in the spectra.

[2] = Alizarin red (ARS) assay, glucose binding affinity; details: 20 mM phosphate buffer pH 7.4, room temperature
Protocol: (§1) The alizarin-red binding assay is a colorimetric assay used to determine the inhibition affinity of boronate compounds to glucose. The assay is based on a colour shift of alizarin-red upon binding to boronate, which shift can be followed by change in absorbance in the 330-340 nm region.
(§2) After 5 minutes of centrifugation at 4000 rpm, the plate is placed in a multi-well spectrometer (SpectraMax, Molecular Devices) for absorption detection.
(§3) The analysis is carried out at room temperature with absorption readings at 330, 340 and 520 nm, respectively. Data obtained for absorption versus concentration of boronate is then fitted (Prism 7, GraphPad) with a sigmoidal function to obtain the Kd value of boronate and ARS.
(§4) Upon complete dissolution of the compound, 200 μM of Alizarin red (ARS) is added to the solution. The ARS-boronate solution is then aliquoted into a 96 multiwell plate (black, flat and clear bottom) 1:1 with appropriate carbohydrate. In particular, D-glucose and L-lactate solutions are prepared in a 20 mM phosphate buffer pH 7.4 at these concentrations respectively: 1000, 500, 250, 100, 50, 25, 10, 5, 2.5, 1, 0.25, 0.1 mM and 2500, 1000, 500, 100, 50, 10, 5, 1, 0.5, 0.1, 0.05, 0.01 mM. The plate with ARS-boronate mixed with carbohydrate is incubated 20 minutes at room temperature. After 5 minutes of centrifugation at 4000 rpm the plate is placed in a multiwell spectrometer (Spectra Max, Molecular Devices) for absorption detection.
(§5) The analysis is carried out at room temperature with absorption readings at 330, 340 and 520 nm, respectively.

[3] = Alizarin red (ARS) assay, lactate binding affinity; details: 20 mM phosphate buffer pH 7.4, room temperature, N.D. = not detectable
Protocol: as §1, §2, §3, §4, §5

[4] = Glucose affinity by 13C NMR assay; details: 1 mM glucose and 1 mM boronate, pH 7.4, 10 mM phosphate buffer, read-out: Binding Affinity [Kd Glucose (mM)] measured by 13C-NMR
Excerpt: The ^13C Glucose assay is an NMR based assay that takes advantage of the slow chemical shift exchange between the unbound glucose (A state) and the glucose bound to diboronates (B state). If
In a slow exchange regime NMR signals from both states (A and B) are observed and reflect the distinct chemical shifts of the two states as there is not significant interconversion in the timescale of the NMR experiments. Therefore the intensity of each peak directly reports on the population of that state.
The dissociation constant (Kd) could be defined as Kd=([A][B])/[AB], given At as the total concentration of specie A and Bt as total concentration of specie B, in the case in which At−Bt, the product at the equilibrium AB is given by the following equation:
[formula] so that knowing At, Bt and AB at the equilibrium is possible to determine Kd. […]
The samples are then investigated with a standard Carbon HSQC in a Bruker NMR instrument (RT, 32 scans). The intensities of the peaks of free glucose and glucose bound to boronates are determined by the use of TOPSPIN program (Bruker). Difference between intensity of free glucose and glucose bound peaks gives the concentration of product AB at the equilibrium so that Kd can be calculated using equation 1.

Sequence of human serum albumin (HSA) (P02768 25-609): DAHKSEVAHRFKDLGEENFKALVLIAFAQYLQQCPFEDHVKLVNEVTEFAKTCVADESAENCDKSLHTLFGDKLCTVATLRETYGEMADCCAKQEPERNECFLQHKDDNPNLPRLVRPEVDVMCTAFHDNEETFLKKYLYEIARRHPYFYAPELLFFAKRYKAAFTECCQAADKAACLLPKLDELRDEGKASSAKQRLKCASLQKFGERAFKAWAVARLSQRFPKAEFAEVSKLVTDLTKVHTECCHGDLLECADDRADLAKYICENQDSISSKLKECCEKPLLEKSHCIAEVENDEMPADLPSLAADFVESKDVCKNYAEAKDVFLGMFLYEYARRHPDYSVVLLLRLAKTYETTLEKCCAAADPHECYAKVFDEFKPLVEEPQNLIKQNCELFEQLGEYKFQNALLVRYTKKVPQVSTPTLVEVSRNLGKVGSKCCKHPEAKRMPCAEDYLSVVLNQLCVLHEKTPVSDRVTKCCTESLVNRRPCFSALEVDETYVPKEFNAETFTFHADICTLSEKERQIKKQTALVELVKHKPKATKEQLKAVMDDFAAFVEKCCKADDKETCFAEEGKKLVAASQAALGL

Row | SMILES | Glucose-dependent binding to albumin (19F-NMR signal) [1] | Kd [2] [mM] | Kd [3] [mM] | Kd [4] [mM]
1 | NC(=O)CN(CCNC(=O)c1ccc(B(O)O)c(F)c1)C(=O)c1ccc(B(O)O)c(F)c1 [Example 3, N,N′-bis(4-borono-3-fluorobenzamido)-N-ethyl-glycine amide] | bind to albumin in a glucose-dependent manner; also recorded: glucose-sensitive albumin binding | 2.7 | 16 | 
2 | O=C(O)CNC(=O)c1cc(B(O)O)cc(C(=O)c2cc(F)cc(B(O)O)c2)c1 [Example 22, (3-Borono-5-(3-borono-5-fluorobenzoyl)benzoyl)glycine] | bind to albumin in a glucose-dependent manner | 2 | 20 | 
3 | O=C(O)CN(CCNC(=O)c1cc2c(c(C(F)(F)F)c1)COB2O)C(=O)c1cc2c(c(C(F)(F)F)c1)COB2O [Example 25, N-(1-Hydroxy-4-(trifluoromethyl)-1,3-dihydrobenzo[c][1,2]oxaborole-6-carbonyl)-N-(2-(1-hydroxy-4-(trifluoromethyl)-1,3-dihydrobenzo[c][1,2]oxaborole-6-carboxamido)ethyl)glycine] | bind to albumin in a glucose-dependent manner | 1.3 | 11 | 
4 | O=C(NC[C@H](NC(=O)c1cc2c(c(C(F)(F)F)c1)COB2O)C(=O)O)c1cc2c(c(C(F)(F)F)c1)COB2O [Example 26, (S)-2,3-Bis(1-hydroxy-4-(trifluoromethyl)-1,3-dihydrobenzo[c][1,2]oxaborole-6-carboxamido)propanoic acid] | bind to albumin in a glucose-dependent manner | 0.2 | 10 | 
5 | O=C(O)CN=S(=O)(c1cc(B(O)O)cc(C(F)(F)F)c1)c1cc(B(O)O)cc(C(F)(F)F)c1 [Example 30, 2-((Bis(3-borono-5-(trifluoromethyl)phenyl)(oxo)-λ6-sulfanylidene)amino)acetic acid] |  |  |  | 0.06
6 | O=C(O)CN=S(=O)(c1cc(B(O)O)cc(C(F)F)c1)c1cc(B(O)O)cc(C(F)F)c1 [Example 34, 2-((Bis(3-borono-5-(difluoromethyl)phenyl)(oxo)-λ6-sulfanylidene)amino)acetic acid] |  | 2.1 | 24.9 | 
7 | O=C(O)CN=S(=O)(c1cc(Cl)cc(B(O)O)c1)c1cc(Cl)cc(B(O)O)c1 [Example 35, 2-((Bis(3-borono-5-chlorophenyl)(oxo)-λ6-sulfanylidene)amino)acetic acid] |  | 0.6 | 20 | 
8 | O=C(O)CN(CCNC(=O)c1cc2c(cc1C(F)(F)F)COB2O)C(=O)c1cc2c(cc1C(F)(F)F)COB2O [Example 37, N-(1-Hydroxy-5-(trifluoromethyl)-1,3-dihydrobenzo[c][1,2]oxaborole-6-carbonyl)-N-(2-(1-hydroxy-5-(trifluoromethyl)-1,3-dihydrobenzo[c][1,2]oxaborole-6-carboxamido)ethyl)glycine] |  | 4.2 | 13 | 
9 | O=C(O)CNC(=O)c1cc(B(O)O)cc(S(=O)(=O)c2cccc(B(O)O)c2)c1 [Example 39, (3-Borono-5-((3-boronophenyl)sulfonyl)benzoyl)glycine] |  | 2.4 | 27 | 
10 | CS(=O)(=O)c1cc(C(=O)NCCN(CC(=O)O)C(=O)c2cc3c(c(S(C)(=O)=O)c2)COB3O)cc2c1COB2O [Example 41, N-(1-Hydroxy-4-(methylsulfonyl)-1,3-dihydrobenzo[c][1,2]oxaborole-6-carbonyl)-N-(2-(1-hydroxy-4-(methylsulfonyl)-1,3-dihydrobenzo[c][1,2]oxaborole-6-carboxamido)ethyl)glycine] |  | 1.4 | 4.4 | 
11 | O=C(O)c1c(C(F)(F)F)cc(B(O)O)cc1S(=O)(=O)c1cc(B(O)O)cc(C(F)(F)F)c1 [Example 43, 4-Borono-2-((3-borono-5-(trifluoromethyl)phenyl)sulfonyl)-6-(trifluoromethyl)benzoic acid] |  | 0.7 | 22 | 
12 | O=C(O)CN=S(=O)(c1cc(OC(F)(F)F)cc(B(O)O)c1)c1cc(OC(F)(F)F)cc(B(O)O)c1 [Example 44, 2-((Bis(3-borono-5-(trifluoromethoxy)phenyl)(oxo)-λ6-sulfanylidene)amino)acetic acid] |  | 0.8 | 41 | 
